Experimental data as given in patent US20230183239A1, “ECTONUCLEOTIDE PYROPHOSPHATASE-PHOSPHODIESTERASE 1 (ENPP-1) INHIBITORS AND USES THEREOF” (AbbVie Inc., priority 2017, published 2023).

Legend:
Format in all cases: biochemical
[1] = target: T1, ENPP1 (Homo sapiens, UniProt P22413); assay: Indirect quantitation of 2',3'-cGAMP hydrolysis (AMP-Glo Assay kit); conditions: cGAMP substrate; Ki from IC50 by Cheng-Prusoff; read-out: ENPP1 Inhibition -cGAMP: Ki
T1 sequence (P22413 1-925): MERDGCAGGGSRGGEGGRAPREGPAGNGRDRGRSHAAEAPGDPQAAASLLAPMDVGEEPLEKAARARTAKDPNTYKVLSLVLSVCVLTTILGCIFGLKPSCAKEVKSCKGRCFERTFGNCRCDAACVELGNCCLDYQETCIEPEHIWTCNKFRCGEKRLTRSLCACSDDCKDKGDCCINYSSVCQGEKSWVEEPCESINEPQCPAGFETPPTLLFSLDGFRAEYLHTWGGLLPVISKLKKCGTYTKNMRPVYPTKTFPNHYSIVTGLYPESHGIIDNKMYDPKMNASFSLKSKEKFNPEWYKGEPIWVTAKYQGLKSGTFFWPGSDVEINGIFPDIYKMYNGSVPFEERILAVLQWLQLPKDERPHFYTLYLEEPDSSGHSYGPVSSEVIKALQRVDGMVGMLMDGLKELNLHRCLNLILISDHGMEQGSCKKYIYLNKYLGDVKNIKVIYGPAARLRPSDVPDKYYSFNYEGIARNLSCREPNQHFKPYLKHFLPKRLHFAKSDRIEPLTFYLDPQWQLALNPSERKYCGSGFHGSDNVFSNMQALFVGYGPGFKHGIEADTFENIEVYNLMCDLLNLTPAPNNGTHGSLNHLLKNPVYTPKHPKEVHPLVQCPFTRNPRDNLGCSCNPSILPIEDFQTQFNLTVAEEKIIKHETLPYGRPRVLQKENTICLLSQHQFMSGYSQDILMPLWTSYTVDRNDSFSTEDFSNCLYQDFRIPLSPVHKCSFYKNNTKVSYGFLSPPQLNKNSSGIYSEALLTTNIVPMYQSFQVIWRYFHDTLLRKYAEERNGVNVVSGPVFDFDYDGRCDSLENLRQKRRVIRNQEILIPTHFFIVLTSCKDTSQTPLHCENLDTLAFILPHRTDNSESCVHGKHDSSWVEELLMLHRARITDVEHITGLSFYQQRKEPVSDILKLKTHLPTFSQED

[2] = target: T1, ENPP1; assay: ENPP1 enzyme assay with AMP-pNP substrate (hydrolysis of ATP analog); conditions: AMP-pNP substrate (ATP analog); Ki from IC50 by Cheng-Prusoff; read-out: ENPP1 Inhibition _AMP-pNP: Ki
Procedure: The ENPP1 assay with AMP-pNP substrate is conducted in a buffer containing 50 mM Tris-HCl (pH 8.5)/ 250 mM NaCl/0.5 mM CaCl2/1 µM ZnCl2/0.1% DMSO. Inhibitors are added at final concentrations ranging between 10 µM and 30 pM depending on the compound. Duplicate wells are run at each inhibitor concentration. The final assay volume is 40 µL and human recombinant ENPP1 is present at 60 ng/well. The assay is initiated by the addition of substrate (300 µM AMP-pNP final concentration), and incubated for 20 minutes at 37° C. […] Each assay plate also includes wells with no enzyme added (MIN OD) and wells with no inhibitor added (MAX OD). The percent inhibition of ENPP1 for each sample is then calculated as: […]
IC50 values of compounds were calculated by entering the percent inhibition values into a sigmoidal variable slope nonlinear regression model in GraphPad Prism® software.

[3] = target: T1, ENPP1; assay: Substrate selectivity ratio, inhibition of cGAMP hydrolysis versus ATP hydrolysis; conditions: ratio Ki AMP-pNP / Ki cGAMP
Procedure: The selectivity ratios for inhibition of cGAMP hydrolysis versus ATP hydrolysis were then calculated as follows: […]

Row | Ki [1] [nM] | Ki [2] [nM] | Substrate Selectivity: Ki_AMP-pNP/Ki_cGAMP [3] | SMILES
1 | < 100 | < 100 | 67.2 | COc1cc2ncc(F)c(-c3ccc(CNS(N)(=O)=O)cc3)c2cc1OC [Example 67, N-(4-(3-fluoro-6,7-dimethoxyquinolin-4-yl)benzyl)sulfamide]
2 | < 100 | 100 to 1000 | 43 | COc1ccc2nccc(N3CCC4(CC3)CCN(S(N)(=O)=O)C4)c2c1 [Example 364, 8-(6-methoxyquinolin-4-yl)-2,8-diazaspiro[4.5]decane-2-sulfonamide]
3 | < 100 | < 100 | 10.1 | COc1cc2nccc(-c3ccc4c(c3)CN(S(N)(=O)=O)CC4)c2cc1OC [Example 148, 7-(6,7-dimethoxyquinolin-4-yl)-3,4-dihydroisoquinoline-2(1H)-sulfonamide]
4 | 100 to 1000 | > 1000 | >77 | COc1ccc2c(N3CCc4cc(NS(N)(=O)=O)ccc43)ccnc2c1F [Example 376, N-(1-(8-fluoro-7-methoxyquinolin-4-yl)indolin-5-yl)sulfamide]
5 | < 100 | 100 to 1000 | >7 | COc1ccc2c(-c3ccc(CN(C)S(N)(=O)=O)cc3)ccnc2c1 [Example 368, N-(4-(7-methoxyquinolin-4-yl)benzyl)-N-methyl sulfamide]
6 | < 100 | 100 to 1000 | 13.7 | COc1ccc2c(Oc3ccc(NS(N)(=O)=O)cc3)c(C)cnc2c1 [Example 300, N-(4-((7-methoxy-3-methylquinolin-4-yl)oxy)phenyl)sulfamide]
7 | < 100 | > 1000 | >461 | COc1cc2ncc(C#N)c(-c3ccc(S(N)(=O)=O)cc3)c2cc1OC [Example 136, 4-(3-cyano-6,7-dimethoxyquinolin-4-yl)benzenesulfonamide]
8 | < 100 | 100 to 1000 | 20.7 | COc1cc2ncnc(-c3ccc(CCNS(N)(=O)=O)cc3)c2cc1OC [Example 145, N-(4-(6,7-dimethoxyquinazolin-4-yl)phenethyl)sulfamide]
9 | < 100 | > 1000 | 36 | COc1ccc2c(-c3ccc(CNS(N)(=O)=O)cn3)ccnc2c1 [Example 387, ((6-(7-methoxy quinolin-4-yl)pyridin-3-yl)methyl)sulfamide]
10 | 100 to 1000 | > 1000 | >15.5 | COc1cc2nccc(NC3CCC(NS(N)(=O)=O)CC3)c2cc1OC (stereo not drawn) [Example 307, N-(4-((6,7-dimethoxyquinolin-4-yl)amino)cyclohexyl)sulfamide]
11 | < 100 | > 1000 | >35 | COc1cc2nccc(-c3ccc4c(c3)CCN(S(N)(=O)=O)C4)c2cc1OC [Example 367, 6-(6,7-dimethoxyquinolin-4-yl)-3,4-dihydroisoquinoline-2(1H)-sulfonamide]

Continued, compound first:

Row | SMILES | Ki [1] [nM] | Ki [2] [nM] | Substrate Selectivity: Ki_AMP-pNP/Ki_cGAMP [3]
12 | NS(=O)(=O)N1CCC2(CCN(c3ncnc4cc(F)ccc34)CC2)C1 [Example 250, 8-(7-fluoroquinazolin-4-yl)-2,8-diazaspiro [4.5] decane-2-sulfonamide] | < 100 | > 1000 | > 89.3
13 | COc1ccc2c(Oc3ccc(NS(=O)(=O)NN)cc3)ccnc2c1 [Example 362, N-(4-((7-methoxyquinolin-4-yl)oxy)phenyl)hydrazinesulfonamide] | 100 to 1000 | > 1000 | >216
14 | COc1ccc2c(-c3ccc(CNS(N)(=O)=O)c(OC)c3)ccnc2c1 [Example 373, N-(2-methoxy-4-(7-methoxyquinolin-4-yl)benzyl)sulfamide] | 100 to 1000 | > 1000 | >136
15 | COc1ccc2c(N3CCc4c3ccc(NS(N)(=O)=O)c4F)ccnc2c1 [Example 379, N-(4-fluoro-1-(7-methoxyquinolin-4-yl)indolin-5-yl)sulfamide] | < 100 | 100 to 1000 | >41
16 | COc1ccc2c(N3CCc4cc(NS(N)(=O)=O)ccc43)ccnc2c1 [Example 59, N-(1-(7-methoxyquinolin-4-yl)indolin-5-yl)sulfamide] | < 100 | < 100 | 29.6
17 | COc1cc2c(N3CCC(CCNS(N)(=O)=O)CC3)ncnc2cc1F [Example 184, N-(2-(1-(7-fluoro-6-methoxyquinazolin-4-yl)piperidin-4-yl)ethyl)sulfamide] | 100 to 1000 | > 1000 | > 18.0
18 | COc1ccc2c(-c3ccc(C(C)(C)NS(N)(=O)=O)cc3)ccnc2c1 [Example 357, N-(2-(4-(7-methoxyquinolin-4-yl)phenyl)propan-2-yl)sulfamide] | < 100 | 100 to 1000 | >18
19 | COc1ccc2c(-c3ccc(CNS(N)(=O)=O)cc3)c(F)cnc2c1 [Example 381, N-(4-(7-methoxy-3-Fluoro-quinolin-4-yl)benzyl) Sulfamide] | < 100 | 100 to 1000 | >38
20 | COc1ccc2c(Oc3ccc(S(N)(=O)=O)cc3)ccnc2n1 [Example 361, 4-(7-Methoxy-[1,8]naphthyridin-4-yl-oxy)-benzene sulfonamide] | < 100 | < 100 | 32
21 | COc1cc2ncc(C#N)c(-c3ccc4c(c3)CN(S(N)(=O)=O)CC4)c2cc1F [Example 316, 7-(3-cyano-6-fluoro-7-methoxyquinolin-4-yl)-3,4-dihydroisoquinoline-2(1H)-sulfonamide] | < 100 | > 1000 | >533
22 | COc1ccc2c(Oc3ccc(S(N)(=O)=O)cc3)ncnc2c1 [Example 356, 4-((7-methoxyquinazolin-4-yl)oxy)benzene sulfonamide] | < 100 | 100 to 1000 | 40
23 | COc1cc2nccc(Nc3ccc(NS(=O)(=O)c4ccccc4)cc3)c2cc1OC [Example 153, N-(4-((6,7-dimethoxyquinolin-4-yl)amino)phenyl)benzenesulfonamide] | < 100 | > 1000 | 62.9
24 | NS(=O)(=O)N1CCc2ccc(-c3ncnc4ccccc34)cc2C1 [Example 150, 7-(quinazolin-4-yl)-3,4-dihydroisoquinoline-2(1H)-sulfonamide] | 100 to 1000 | > 1000 | >158
25 | COc1cc2ncnc(N3CCC(CCN(O)C=O)CC3)c2cc1OC [Example 219, N-(2-(1-(6,7-dimethoxyquinazolin-4-yl)piperidin-4-yl)ethyl)-N-hydroxyformamide] | < 100 | 100 to 1000 | 26.4
26 | COc1cc2c(N3CCC(CCNS(N)(=O)=O)CC3)c(C#N)cnc2cn1 [Example 216, N-(2-(1-(3-cyano-6-methoxy-1,7-naphthyridin-4-yl)piperidin-4-yl)ethyl)sulfamide] | < 100 | > 1000 | > 72.3
